# Key:
# [1] = target: T1, N-type calcium channel (NTCC) (Homo sapiens, UniProt Q00975); experiment: FLIPR calcium mobilization assay for N-type calcium channel; type: cell-based; conditions: calcium mobilization in vitro assay; differentiated IMR32 cells
# T1 construct: host or cells: IMR32 cells differentiated with dibutyryl cAMP and bromodeoxyuridine
# Description: Unless noted otherwise, cell culture reagents were purchased from Mediatech of Herndon, Md. IMR32 cells (American Type Culture Collection, ATCC, Manassas, Va.) were routinely cultured in growth medium consisting of minimum essential medium containing 10% fetal bovine serum (FBS, Hyclone, Logan, Utah), 100 U/mL penicillin, 100 μg/mL streptomycin, 2 mM L-glutamine, 1 mM sodium pyruvate, and 1× MEM non-essential amino acids. 80-90% confluent flasks of cells were differentiated using the following differentiation medium: Growth medium plus 1 mM dibutyryl cyclic AMP (Sigma, St. Louis, Mo.), and 2.5 μM bromodeoxyuridine (Sigma). Cells were differentiated for 8 days by replacing differentiation medium every 2-3 days.
# FLIPR Calcium Mobilization Assay for N-Type Calcium Channel.
# One day prior to performing this assay, differentiated IMR32 cells were treated with 1× CellStripper, and seeded on poly-D-lysine-coated 96-well clear-bottom black plates (Becton Dickinson, Franklin Lakes, N.J.) at 200,000 cells/well. On the day of the assay, the cell plates were washed with IMR32 buffer (127 mM NaCl, 1 mM KCl, 2 mM MgCl2, 700 μM NaH2PO4, 5 mM CaCl2, 5 mM NaHCO3, 8 mM HEPES, 10 mM glucose, pH 7.4), then pre-stimulated with KCl and loaded as follows: 0.05 mL of IMR32 buffer, 0.05 mL of each compound tested diluted in IMR32 buffer containing 20 μM nitrendipine (Sigma), and 0.1 mL KCl dissolved in IMR32 buffer, plus Fluo-4 were added (3 μM final concentration, Molecular Probes, Eugene, Oreg.). Final test compound concentrations ranged from about 846 pM to about 17 μM, final nitrendipine concentration was 5 μM, and final KCl concentration was 90 mM. After 1 hour, the cells were washed twice with 0.05 mL of each compound is tested in nitrendipine-containing IMR32 buffer (no KCl or Fluo-4), and then replaced with 0.1 mL of each compound tested in nitrendipine-containing IMR32 buffer. Plates were then transferred to a Fluorimetric Imaging Plate Reader (FLIPR^96, Molecular Devices, Inc., Sunnyvale, Calif.) for assay. The FLIPR measured basal Fluo-4 fluorescence for 315 seconds (i.e., 5 minutes and 15 seconds), then added 0.1 mL KCl agonist dissolved in IMR32 buffer and measured fluorescence for another 45 seconds. Final test compound concentrations on the cells after FLIPR read ranged from about 846 pM to about 17 μM, final nitrendipine concentration was 5 μM, and final KCl concentration was 90 mM. Data were collected over the entire time course and analyzed using Excel, Graph Pad Prism (version 3.02, Graph Pad, San Diego, Calif.), or an in-house non-linear regression analysis software.
# [2] = target: T2, recombinant rat L-type calcium channel (LTCC) subunits (α1c, α2δ, and β1) (Rattus norvegicus, UniProt P22002); experiment: FLIPR calcium mobilization assay for L-type calcium channel; type: cell-based; conditions: calcium mobilization in vitro assay; HEK293 cells expressing rat LTCC
# T2 construct: expressed in transfected cells
# Description: Recombinant human embryonal kidney cells (HEK293, ATCC) stably transfected with either N-type calcium channel (NTCC) subunits (α1b, α2δ, and ⊖3) or L-type calcium channel (LTCC) subunits (α1, α2δ, and β1) were routinely cultured in growth medium consisting of Dulbecco's Modified Eagles Medium containing 10% FBS, 100 U/mL penicillin, 100 μg/mL streptomycin, 4 mM L-glutamine, 500 μg/mL geneticin (G418), 20 μg/mL Blasticidin S (InVivogen, San Diego, Calif.) and 500 μg/mL zeocin (InVivogen).
# FLIPR Calcium Mobilization Assay for L-Type Calcium Channel.
# One day prior to performing this assay, HEK293 cells stably expressing recombinant rat L-type calcium channel (LTCC) subunits (α1c, α2δ, and β1) were trypsinized, then seeded on poly-D-lysine-coated 96-well clear-bottom black plates (Becton Dickinson, Franklin Lakes, N.J.) at 75,000 cells/well. On the day of the assay, the plates were washed with LTCC wash buffer (127 mM NaCl, 2 mM MgCl2, 700 μM NaH2PO4, 5 mM CaCl2, 5 mM NaHCO3, 8 mM HEPES, 10 mM glucose, pH 7.4), then loaded with 0.1 mL of LTCC wash buffer containing Fluo-4 (3 μM final concentration, Molecular Probes, Eugene, Oreg.). After 1 hour, the cells were washed with 0.1 mL LTCC wash buffer and resuspended in 0.05 mL LTCC assay buffer (same composition as LTCC wash buffer). Plates were then transferred to a FLIPR^96 for assay. The FLIPR measured basal Fluo-4 fluorescence for 15 seconds, then is added 0.05 mL of each compound tested diluted in LTCC assay buffer at final concentrations ranging from about 846 pM to about 17 μM. Fluo-4 fluorescence was then measured for 5 minutes. 0.1 mL KCl agonist dissolved in LTCC assay buffer was then added to the cells to produce a final concentration of 90 mM KCl, and fluorescence was measured for another 45 seconds. Data were collected over the entire time course and analyzed using Excel, Graph Pad Prism, or an in-house regression analysis software.
# T1 sequence (Q00975 whole entry): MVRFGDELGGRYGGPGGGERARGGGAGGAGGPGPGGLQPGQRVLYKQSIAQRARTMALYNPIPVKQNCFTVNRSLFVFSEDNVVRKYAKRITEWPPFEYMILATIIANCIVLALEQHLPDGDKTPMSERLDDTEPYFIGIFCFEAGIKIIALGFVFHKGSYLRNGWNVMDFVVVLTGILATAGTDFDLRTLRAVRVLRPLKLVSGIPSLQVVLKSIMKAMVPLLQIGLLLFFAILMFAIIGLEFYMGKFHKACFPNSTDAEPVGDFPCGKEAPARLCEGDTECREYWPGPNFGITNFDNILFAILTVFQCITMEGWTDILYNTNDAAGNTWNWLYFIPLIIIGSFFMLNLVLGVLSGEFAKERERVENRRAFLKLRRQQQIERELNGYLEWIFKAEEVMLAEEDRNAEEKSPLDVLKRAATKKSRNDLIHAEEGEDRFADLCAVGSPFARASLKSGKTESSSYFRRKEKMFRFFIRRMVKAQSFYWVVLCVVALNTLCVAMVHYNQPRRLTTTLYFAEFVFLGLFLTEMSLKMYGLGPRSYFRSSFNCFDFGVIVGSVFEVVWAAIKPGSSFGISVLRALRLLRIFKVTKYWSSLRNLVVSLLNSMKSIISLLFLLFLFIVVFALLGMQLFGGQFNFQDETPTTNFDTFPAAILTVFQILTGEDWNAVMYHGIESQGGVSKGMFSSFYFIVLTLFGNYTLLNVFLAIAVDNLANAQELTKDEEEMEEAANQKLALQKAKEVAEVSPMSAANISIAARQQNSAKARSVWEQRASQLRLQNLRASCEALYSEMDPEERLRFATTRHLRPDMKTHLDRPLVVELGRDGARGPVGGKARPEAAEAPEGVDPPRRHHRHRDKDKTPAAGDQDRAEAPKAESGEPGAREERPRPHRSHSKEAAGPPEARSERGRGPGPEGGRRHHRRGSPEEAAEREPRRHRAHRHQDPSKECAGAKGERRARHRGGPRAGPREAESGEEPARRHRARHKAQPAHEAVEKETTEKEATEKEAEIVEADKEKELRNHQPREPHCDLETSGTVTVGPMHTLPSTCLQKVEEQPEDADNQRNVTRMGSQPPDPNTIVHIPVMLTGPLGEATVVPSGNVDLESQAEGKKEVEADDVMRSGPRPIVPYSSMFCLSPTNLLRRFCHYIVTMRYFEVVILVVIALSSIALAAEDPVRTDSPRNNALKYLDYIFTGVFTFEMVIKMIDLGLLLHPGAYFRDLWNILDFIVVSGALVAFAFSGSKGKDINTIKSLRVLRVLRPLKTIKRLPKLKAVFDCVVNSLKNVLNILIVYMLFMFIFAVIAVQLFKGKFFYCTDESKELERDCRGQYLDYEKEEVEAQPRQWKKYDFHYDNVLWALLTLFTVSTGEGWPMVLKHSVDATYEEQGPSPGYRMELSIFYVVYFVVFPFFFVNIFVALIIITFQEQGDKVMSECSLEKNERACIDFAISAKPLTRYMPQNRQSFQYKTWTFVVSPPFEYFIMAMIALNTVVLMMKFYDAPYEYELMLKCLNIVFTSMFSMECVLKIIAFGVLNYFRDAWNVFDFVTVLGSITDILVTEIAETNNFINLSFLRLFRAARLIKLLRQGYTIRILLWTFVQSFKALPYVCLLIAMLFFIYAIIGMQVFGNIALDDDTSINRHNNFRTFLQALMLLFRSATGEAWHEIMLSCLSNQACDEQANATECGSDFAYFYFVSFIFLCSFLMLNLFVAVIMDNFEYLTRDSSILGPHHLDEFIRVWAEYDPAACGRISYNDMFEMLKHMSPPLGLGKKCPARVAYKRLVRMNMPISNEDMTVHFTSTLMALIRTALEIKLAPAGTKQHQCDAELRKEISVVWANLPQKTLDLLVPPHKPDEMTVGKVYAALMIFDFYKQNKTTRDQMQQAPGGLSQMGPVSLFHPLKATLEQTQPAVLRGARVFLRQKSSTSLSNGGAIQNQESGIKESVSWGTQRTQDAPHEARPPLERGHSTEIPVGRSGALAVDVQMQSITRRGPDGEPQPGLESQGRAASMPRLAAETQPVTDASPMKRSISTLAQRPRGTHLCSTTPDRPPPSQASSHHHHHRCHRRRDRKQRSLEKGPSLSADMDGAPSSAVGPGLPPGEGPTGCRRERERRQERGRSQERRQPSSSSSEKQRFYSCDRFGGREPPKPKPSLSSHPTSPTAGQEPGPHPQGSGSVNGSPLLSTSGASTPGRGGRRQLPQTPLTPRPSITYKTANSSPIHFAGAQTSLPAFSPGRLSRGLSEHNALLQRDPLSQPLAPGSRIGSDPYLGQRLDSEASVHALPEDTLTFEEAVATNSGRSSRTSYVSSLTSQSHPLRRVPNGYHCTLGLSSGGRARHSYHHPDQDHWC
# T1 sequence (P54289 25-956 partner limits assumed): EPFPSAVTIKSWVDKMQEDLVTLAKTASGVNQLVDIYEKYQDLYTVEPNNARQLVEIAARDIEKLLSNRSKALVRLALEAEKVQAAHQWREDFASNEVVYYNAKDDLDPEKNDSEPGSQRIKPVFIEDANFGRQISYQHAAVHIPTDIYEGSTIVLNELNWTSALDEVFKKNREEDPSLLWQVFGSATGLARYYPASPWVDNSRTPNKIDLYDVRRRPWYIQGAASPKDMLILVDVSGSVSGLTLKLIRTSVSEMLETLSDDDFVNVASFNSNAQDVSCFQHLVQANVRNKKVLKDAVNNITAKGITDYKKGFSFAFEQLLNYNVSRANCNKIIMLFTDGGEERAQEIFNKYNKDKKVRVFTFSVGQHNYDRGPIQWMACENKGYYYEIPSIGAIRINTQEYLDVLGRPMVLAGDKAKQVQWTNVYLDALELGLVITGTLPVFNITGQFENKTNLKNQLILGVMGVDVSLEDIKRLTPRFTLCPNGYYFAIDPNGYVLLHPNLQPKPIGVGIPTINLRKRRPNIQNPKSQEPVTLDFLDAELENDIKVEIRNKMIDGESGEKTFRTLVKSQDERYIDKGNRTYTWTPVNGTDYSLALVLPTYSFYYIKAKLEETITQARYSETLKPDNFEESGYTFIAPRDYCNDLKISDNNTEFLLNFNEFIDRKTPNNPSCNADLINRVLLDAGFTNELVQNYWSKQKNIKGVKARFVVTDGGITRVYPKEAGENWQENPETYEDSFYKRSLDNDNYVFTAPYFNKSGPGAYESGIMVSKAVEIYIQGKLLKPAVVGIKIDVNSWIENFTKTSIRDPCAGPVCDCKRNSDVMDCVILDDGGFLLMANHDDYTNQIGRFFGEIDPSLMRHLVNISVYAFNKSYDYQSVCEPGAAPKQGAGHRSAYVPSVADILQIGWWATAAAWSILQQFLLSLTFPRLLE
# T1 sequence (P54289 957-1103 partner limits assumed): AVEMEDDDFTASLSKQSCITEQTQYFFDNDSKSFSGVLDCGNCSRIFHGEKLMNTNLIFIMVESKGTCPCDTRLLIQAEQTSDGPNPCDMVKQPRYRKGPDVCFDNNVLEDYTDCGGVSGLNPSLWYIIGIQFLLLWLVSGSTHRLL
# T1 sequence (P54284 whole entry partner): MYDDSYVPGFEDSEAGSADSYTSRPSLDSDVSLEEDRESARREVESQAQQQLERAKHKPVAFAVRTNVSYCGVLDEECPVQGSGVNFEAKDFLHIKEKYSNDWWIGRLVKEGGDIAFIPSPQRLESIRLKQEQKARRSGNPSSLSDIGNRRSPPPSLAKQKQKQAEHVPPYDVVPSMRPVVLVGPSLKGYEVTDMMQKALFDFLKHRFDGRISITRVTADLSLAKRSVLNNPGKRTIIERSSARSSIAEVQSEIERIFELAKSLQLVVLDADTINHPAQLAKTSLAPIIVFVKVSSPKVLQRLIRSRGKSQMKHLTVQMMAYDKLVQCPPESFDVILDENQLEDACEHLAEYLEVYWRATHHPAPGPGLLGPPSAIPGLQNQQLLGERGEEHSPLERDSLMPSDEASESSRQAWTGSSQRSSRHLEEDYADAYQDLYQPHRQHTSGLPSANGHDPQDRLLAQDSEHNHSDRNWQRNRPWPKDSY
Molecule,IC50 [1],IC50 [2]
"CCOc1ccccc1NC(=O)CN1CCC(N(C(C)C)S(=O)(=O)c2cccc(C(F)(F)F)c2)CC1 [Compound 42c, N-(2-Ethoxyphenyl)-2-{4-[isopropyl-(3-trifluoromethylbenzenesulfonyl)amino]-piperidin-1-yl}-acetamide]",110 nM,9540 nM
"CC(C)c1ccc(NC(=O)CN2CCC(N(C(C)C)S(=O)(=O)c3cccc(C(F)(F)F)c3)CC2)cc1 [Compound 42f, N-(4-Isopropylphenyl)-2-{4-[isopropyl-(3-trifluoromethylbenzenesulfonyl)amino]-piperidin-1-yl}-acetamide]",630 nM,> 20000 nM
COc1ccccc1NCCC(=O)N1CCC(N(C(C)C)S(=O)(=O)c2cccc(C(F)(F)F)c2)CC1 [N-isopropyl-N-{1-[3-(2-methoxy-phenylamino)-propionyl]-piperidin-4-yl}-3-trifluoromethyl-benzenesulfonamide],370 nM,3800 nM
"O=C(CN1CCC(N(C2CC2)S(=O)(=O)c2cccc(C(F)(F)F)c2)CC1)Nc1cc(F)cc(F)c1 [Compound 74, 2-{4-[Cyclopropyl-(3-trifluoromethylbenzenesulfonyl)amino]-piperidin-1-yl}-N-(3,5-difluorophenyl)-acetamide]",370 nM,6600 nM
COc1cc(NCCC(=O)N2CCC(N(C(C)C)S(=O)(=O)c3cccc(C(F)(F)F)c3)CC2)ccc1F [N-{1-[3-(4-fluoro-3-methoxy-phenylamino)-propionyl]-piperidin-4-yl}-N-isopropyl-3-trifluoromethyl-benzenesulfonamide],620 nM,> 20000 nM
"O=C(CN1CCC(N(C2CC2)S(=O)(=O)c2cccc(C(F)(F)F)c2)CC1)Nc1ccc(C(F)(F)F)cc1 [Compound 55, 2-{4-[Cyclopropyl-(3-trifluoromethylbenzenesulfonyl)amino]-piperidin-1-yl}-N-(4-trifluoromethylphenyl)acetamide]",720 nM,> 20000 nM
CC(C)N(C1CCN(C(=O)CCN(C)Cc2ccccc2)CC1)S(=O)(=O)c1cccc(C(F)(F)F)c1 [N-{1-[3-(benzyl-methyl-amino)-propionyl]-piperidin-4-yl}-N-isopropyl-3-trifluoromethyl-benzenesulfonamide],420 nM,7480 nM
"COc1ccc(OC)c(NCCC(=O)N2CCC(N(C(C)C)S(=O)(=O)c3cccc(C(F)(F)F)c3)CC2)c1 [N-{1-[3-(2,5-dimethoxy-phenylamino)-propionyl]-piperidin-4-yl}-N-isopropyl-3-trifluoromethyl-benzenesulfonamide]",750 nM,> 20000 nM
"O=C(CC(=O)N1CCC(N(C2CC2)S(=O)(=O)c2cccc(C(F)(F)F)c2)CC1)Nc1ccc(F)cc1 [Compound 26, 3-{4-[Cyclopropyl-(3-trifluoromethylbenzenesulfonyl)amino]-piperidin-1-yl}-N-(4-fluorophenyl)-3-oxo-propionamide]",440 nM,3780 nM
"Cc1cc(C)cc(NC(=O)CN2CCC(N(C3CC3)S(=O)(=O)c3cccc(C(F)(F)F)c3)CC2)c1 [Compound 80, 2-{4-[Cyclopropyl-(3-trifluoromethylbenzenesulfonyl)amino]-piperidin-1-yl}-N-(3,5-dimethylphenyl)-acetamide]",500 nM,> 20000 nM
"CC(C)N(C1CCN(C(=O)CN(CCO)Cc2ccccc2)CC1)S(=O)(=O)c1cccc(C(F)(F)F)c1 [Compound 103, N-(1-{2-[Benzyl-(2-hydroxyethyl)-amino]acetyl}-piperidin-4-yl)-N-isopropyl-3-trifluoromethylbenzenesulfonamide]",700 nM,7730 nM
"CC(NCCCn1ccnc1)C(=O)N1CCC(N(C(C)C)S(=O)(=O)c2cccc(C(F)(F)F)c2)CC1 (stereo not drawn) [Compound 90, N-{1-[2-(3-Imidazol-1-yl-propylamino)propionyl]-piperidin-4-yl}-N-isopropyl-3-trifluoromethylbenzenesulfonamide]",9560 nM,
"CCC(NCc1ccccc1)C(=O)N1CCC(N(C(C)C)S(=O)(=O)c2cccc(C(F)(F)F)c2)CC1 (stereo not drawn) [Compound 91, N-[1-(2-Benzylaminobutyryl)-piperidin-4-yl]-N-isopropyl-3-trifluoromethylbenzenesulfonamide]",1150 nM,
2-[4-(Benzenesulfonylmethylamino)-piperidin-1-yl]-N-(4-fluorophenyl)acetamide [Compound 47],2950 nM,

# Further lines, results first:
IC50 [1],IC50 [2],Molecule
460 nM,5320 nM,"COc1ccc(NC(=O)CN2CCC(N(C(C)C)S(=O)(=O)c3cccc(C(F)(F)F)c3)CC2)cc1 [Compound 42h, 2-{4-[isopropyl-(3-trifluoromethylbenzenesulfonyl)amino]-piperidin-1-yl}-N-(4-methoxyphenyl)acetamide]"
770 nM,> 20000 nM,CC(C)N(C1CCN(C(=O)CCNc2cccc(OC(F)(F)F)c2)CC1)S(=O)(=O)c1cccc(C(F)(F)F)c1 [N-isopropyl-N-{1-[3-(3-trifluoromethoxy-phenylamino)-propionyl]-piperidin-4-yl}-3-trifluoromethyl-benzenesulfonamide]
670 nM,> 20000 nM,"CC(C)N(C1CCN(CC(=O)Nc2nc3ccc(F)cc3s2)CC1)S(=O)(=O)c1cccc(C(F)(F)F)c1 [Compound 42i, N-(6-Fluorobenzothiazol-2-yl)-2-{4-[isopropyl-(3-trifluoromethylbenzenesulfonyl)amino]-piperidin-1-yl}-acetamide]"
310 nM,5920 nM,"Cc1cccc(C)c1NC(=O)CN1CCC(N(C2CC2)S(=O)(=O)c2cccc(C(F)(F)F)c2)CC1 [Compound 58, 2-{4-[Cyclopropyl-(3-trifluoromethylbenzenesulfonyl)-amino]-piperidin-1-yl}-N-(2,6-dimethylphenyl)acetamide]"
> 20000 nM,,CC(C)CNC(=O)CN1CCC(N(C)S(=O)(=O)c2ccccc2)CC1 [2-[4-(benzenesulfonyl-methyl-amino)-piperidin-1-yl]-N-isobutyl-acetamide]
1630 nM,,"Cc1ccc(NC(=O)CN2CCC(N(C(C)C)S(=O)(=O)c3cccc(C(F)(F)F)c3)CC2)cc1 [Compound 42e, 2-{4-[Isopropyl-(3-trifluoromethylbenzenesulfonyl)amino]-piperidin-1-yl}-N-p-tolyl-acetamide]"
3810 nM,,"Cc1cccc(S(=O)(=O)N(C2CC2)C2CCN(CC(=O)Nc3cc(C(F)(F)F)cc(C(F)(F)F)c3)CC2)c1 [Compound 69, N-(3,5-Bis-trifluoromethylphenyl)-2-{4-[cyclopropyl-(toluene-3-sulfonyl)amino]-piperidin-1-yl}-acetamide]"

# Source: US8791264B2 (Purdue Pharma L.P., priority 2006, dated 2014)
